PubChem BioAssay AID1963837 (Molecular Pharmacology Branch, DTP, NCI, 2024)

System: 843126-344-R-J1-PDC complex spheroid viability
Assay: Anticancer human tumor 843126-344-R-J1-PDC patient-derived melanoma cell line growth inhibition [POLQ]
Conditions: for IC50: curve of first compound; for viability, T/C: stronger effect = lower value
Outline: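 Growth inhibition in 3D: complex spheroids (tumor PDC, HUVEC, MSC) treated with POLQ inhibitor combinations; where Cmax unknown, highest tested concentration 10 microM, except SN-38 at 1 microM.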

[1] = second compound 0.0316 µM, first compound 0.0316 µM
[2] = second compound 0.0316 µM, first compound 0.1 µM
[3] = second compound 0.0316 µM, first compound 0.316 µM
[4] = second compound 0.0316 µM, first compound 1 µM
[5] = second compound 0.0316 µM, first compound 3.16 µM
[6] = second compound 0.0316 µM, first compound 10 µM
[7] = second compound 0.1 µM, first compound 0.0316 µM
[8] = second compound 0.1 µM, first compound 0.1 µM
[9] = second compound 0.1 µM, first compound 0.316 µM
[10] = second compound 0.1 µM, first compound 1 µM
[11] = second compound 0.1 µM, first compound 3.16 µM
[12] = second compound 0.1 µM, first compound 10 µM
[13] = second compound 0.316 µM, first compound 0.0316 µM
[14] = second compound 0.316 µM, first compound 0.1 µM
[15] = second compound 0.316 µM, first compound 0.316 µM
[16] = second compound 0.316 µM, first compound 1 µM
[17] = second compound 0.316 µM, first compound 3.16 µM
[18] = second compound 0.316 µM, first compound 10 µM
[19] = second compound 1 µM, first compound 0.0316 µM
[20] = second compound 1 µM, first compound 0.1 µM
[21] = second compound 1 µM, first compound 0.316 µM
[22] = second compound 1 µM, first compound 1 µM
[23] = second compound 1 µM, first compound 3.16 µM
[24] = second compound 1 µM, first compound 10 µM
[25] = second compound 3.16 µM, first compound 0.0316 µM
[26] = second compound 3.16 µM, first compound 0.1 µM
[27] = second compound 3.16 µM, first compound 0.316 µM
[28] = second compound 3.16 µM, first compound 1 µM
[29] = second compound 3.16 µM, first compound 3.16 µM
[30] = second compound 3.16 µM, first compound 10 µM
[31] = second compound 10 µM, first compound 0.0316 µM
[32] = second compound 10 µM, first compound 0.1 µM
[33] = second compound 10 µM, first compound 0.316 µM
[34] = second compound 10 µM, first compound 1 µM
[35] = second compound 10 µM, first compound 3.16 µM
[36] = second compound 10 µM, first compound 10 µM
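For viability, T/C in this document: spheroids exposed to drugs for seven days before readout.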

Which results are given for `CC1COCCN1c1cc(-c2ccnn2C)c2ccnc(-c3ccn[nH]3)c2n1` (stereo unspecified) + COC1C(OC(N)=O)C(O)C(Oc2ccc3c(O)c(NC(=O)c4ccc(O)c(CC=C(C)C)c4)c(=O)oc3c2C)OC1(C)C?
IC50 (second compound 0.0316 µM): 1.04 µM; IC50 (second compound 0.1 µM): 0.875 µM; IC50 (second compound 0.316 µM): 0.784 µM; IC50 (second compound 1 µM): 1.27 µM; IC50 (second compound 3.16 µM): 0.918 µM; IC50 (second compound 10 µM): 1.1 µM; viability, T/C [1]: 98.7%; viability, T/C [2]: 69.8%; viability, T/C [3]: 66.3%; viability, T/C [4]: 54.2%; viability, T/C [5]: 35.5%; viability, T/C [6]: 34.2%; viability, T/C [7]: 81.1%; viability, T/C [8]: 76.5%; viability, T/C [9]: 67.1%; viability, T/C [10]: 47.2%; viability, T/C [11]: 33.4%; viability, T/C [12]: 26.4%; viability, T/C [13]: 92.4%; viability, T/C [14]: 73.7%; viability, T/C [15]: 60.4%; viability, T/C [16]: 46.2%; viability, T/C [17]: 38.1%; viability, T/C [18]: 23.7%; viability, T/C [19]: 65.7%; viability, T/C [20]: 77.5%; viability, T/C [21]: 71.3%; viability, T/C [22]: 53.5%; viability, T/C [23]: 36.3%; viability, T/C [24]: 32%; viability, T/C [25]: 73.3%; viability, T/C [26]: 83%; viability, T/C [27]: 58.5%; viability, T/C [28]: 45.9%; viability, T/C [29]: 42.1%; viability, T/C [30]: 25%; viability, T/C [31]: 73.3%; viability, T/C [32]: 77.5%; viability, T/C [33]: 61.5%; viability, T/C [34]: 46.1%; viability, T/C [35]: 42.9%; viability, T/C [36]: 24.3%

With `CC1COCCN1c1cc(C2(S(C)(=N)=O)CC2)nc(-c2ccnc3[nH]ccc23)n1` (stereo unspecified) + COC1C(OC(N)=O)C(O)C(Oc2ccc3c(O)c(NC(=O)c4ccc(O)c(CC=C(C)C)c4)c(=O)oc3c2C)OC1(C)C as the compound, how does the IC50 (second compound 0.0316 µM) read?
Its IC50 is greater than 10 µM.

What about the IC50 (second compound 0.1 µM) of the same compound?
The IC50 was greater than 10 µM.

What about the IC50 (second compound 0.316 µM) of the same compound?
Its IC50 is greater than 10 µM.

And the IC50 (second compound 1 µM)?
The IC50 was 8.62 µM.

And the IC50 (second compound 3.16 µM)?
Its IC50 is 9.28 µM.

What about the IC50 (second compound 10 µM) of the same compound?
The IC50 was 9.69 µM.

What about the viability, T/C [1] of the same compound?
The viability, T/C was 99%.

What about the viability, T/C [2] of the same compound?
Its viability, T/C is 98%.

And the viability, T/C [3]?
The viability, T/C was 110%.

What about the viability, T/C [4] of the same compound?
Its viability, T/C is 99.6%.

What about the viability, T/C [5] of the same compound?
Its viability, T/C is 59.2%.

What about the viability, T/C [6] of the same compound?
The viability, T/C was 55.9%.

And the viability, T/C [7]?
The viability, T/C was 90.9%.

What about the viability, T/C [8] of the same compound?
The viability, T/C was 80.3%.

What about the viability, T/C [9] of the same compound?
The viability, T/C was 97.6%.

What about the viability, T/C [10] of the same compound?
Its viability, T/C is 80.6%.

And the viability, T/C [11]?
Its viability, T/C is 65.7%.

What about the viability, T/C [12] of the same compound?
Its viability, T/C is 55.3%.

What about the viability, T/C [13] of the same compound?
The viability, T/C was 103%.

What about the viability, T/C [14] of the same compound?
Its viability, T/C is 79.8%.

What about the viability, T/C [15] of the same compound?
The viability, T/C was 81.2%.

And the viability, T/C [16]?
Its viability, T/C is 89%.

What about the viability, T/C [17] of the same compound?
The viability, T/C was 56.9%.

What about the viability, T/C [18] of the same compound?
Its viability, T/C is 53.5%.

And the viability, T/C [19]?
The viability, T/C was 84.6%.

What about the viability, T/C [20] of the same compound?
Its viability, T/C is 88.3%.

And the viability, T/C [21]?
The viability, T/C was 78.5%.

What about the viability, T/C [22] of the same compound?
The viability, T/C was 96.3%.

And the viability, T/C [23]?
The viability, T/C was 69.2%.

And the viability, T/C [24]?
Its viability, T/C is 47.1%.

What about the viability, T/C [25] of the same compound?
The viability, T/C was 87.1%.

And the viability, T/C [26]?
The viability, T/C was 89.1%.

And the viability, T/C [27]?
The viability, T/C was 89%.

What about the viability, T/C [28] of the same compound?
The viability, T/C was 79.5%.

And the viability, T/C [29]?
Its viability, T/C is 74%.

What about the viability, T/C [30] of the same compound?
The viability, T/C was 48%.

And the viability, T/C [31]?
The viability, T/C was 94.8%.

What about the viability, T/C [32] of the same compound?
The viability, T/C was 101%.

And the viability, T/C [33]?
The viability, T/C was 74.1%.

What about the viability, T/C [34] of the same compound?
The viability, T/C was 89.7%.

And the viability, T/C [35]?
The viability, T/C was 69.3%.

And the viability, T/C [36]?
Its viability, T/C is 48.7%.

For `CCCS(=O)(=O)Nc1ccc(F)c(C(=O)c2c[nH]c3ncc(-c4ccc(Cl)cc4)cc23)c1F` + COC1C(OC(N)=O)C(O)C(Oc2ccc3c(O)c(NC(=O)c4ccc(O)c(CC=C(C)C)c4)c(=O)oc3c2C)OC1(C)C, which IC50 (second compound 0.0316 µM) is on record?
Its IC50 is greater than 10 µM.

And the IC50 (second compound 0.1 µM)?
Its IC50 is greater than 10 µM.

And the IC50 (second compound 0.316 µM)?
Its IC50 is greater than 10 µM.

And the IC50 (second compound 1 µM)?
The IC50 was greater than 10 µM.

What about the IC50 (second compound 3.16 µM) of the same compound?
The IC50 was greater than 10 µM.

And the IC50 (second compound 10 µM)?
Its IC50 is greater than 10 µM.

What about the viability, T/C [1] of the same compound?
Its viability, T/C is 88.8%.

And the viability, T/C [2]?
Its viability, T/C is 87.5%.

And the viability, T/C [3]?
Its viability, T/C is 62.7%.

And the viability, T/C [4]?
Its viability, T/C is 72.9%.

What about the viability, T/C [5] of the same compound?
The viability, T/C was 75.6%.

What about the viability, T/C [6] of the same compound?
The viability, T/C was 60%.

What about the viability, T/C [7] of the same compound?
Its viability, T/C is 77.5%.

And the viability, T/C [8]?
The viability, T/C was 81.7%.

What about the viability, T/C [9] of the same compound?
Its viability, T/C is 84.5%.

And the viability, T/C [10]?
Its viability, T/C is 64.5%.

And the viability, T/C [11]?
Its viability, T/C is 72.5%.

What about the viability, T/C [12] of the same compound?
The viability, T/C was 72.5%.

What about the viability, T/C [13] of the same compound?
Its viability, T/C is 78.5%.

And the viability, T/C [14]?
The viability, T/C was 97.1%.

And the viability, T/C [15]?
Its viability, T/C is 86.3%.

And the viability, T/C [16]?
Its viability, T/C is 70.5%.

And the viability, T/C [17]?
The viability, T/C was 71.7%.

What about the viability, T/C [18] of the same compound?
Its viability, T/C is 70.8%.

What about the viability, T/C [19] of the same compound?
The viability, T/C was 82.2%.

And the viability, T/C [20]?
The viability, T/C was 98.2%.

What about the viability, T/C [21] of the same compound?
The viability, T/C was 80.4%.

And the viability, T/C [22]?
Its viability, T/C is 87.6%.

And the viability, T/C [23]?
Its viability, T/C is 65.5%.

And the viability, T/C [24]?
The viability, T/C was 65%.

And the viability, T/C [25]?
The viability, T/C was 92.1%.

And the viability, T/C [26]?
The viability, T/C was 77.9%.

What about the viability, T/C [27] of the same compound?
The viability, T/C was 91.2%.

What about the viability, T/C [28] of the same compound?
Its viability, T/C is 72.6%.

What about the viability, T/C [29] of the same compound?
The viability, T/C was 77.9%.

And the viability, T/C [30]?
The viability, T/C was 77.2%.

And the viability, T/C [31]?
Its viability, T/C is 83.2%.

What about the viability, T/C [32] of the same compound?
Its viability, T/C is 106%.

And the viability, T/C [33]?
Its viability, T/C is 83.2%.

What about the viability, T/C [34] of the same compound?
The viability, T/C was 75.2%.

And the viability, T/C [35]?
The viability, T/C was 75.3%.

What about the viability, T/C [36] of the same compound?
The viability, T/C was 64.3%.
